Patent publication US20260373155A1, “TRANSDERMALLY- OR TOPICALLY-ADMINISTERED COMPOSITION COMPRISING THIENOPYRIDINE COMPOUND” (GY LIFE SCIENCES CO., LTD., priority 2022, published 2026)

Experiments:
[1] = Solution stability of the hydrochloride salt with solubilizer or thickener (days without precipitation); assay type: physicochemical; conditions: 0.3% hydrochloride salt, aqueous phase, room temperature
Experimental: This experiment examined whether a solubilizer or thickener could maintain a stable solution (without solid precipitation due to self-aggregation) of the hydrochloride salt of the thienopyridine compound of Chemical Formula 1 in an aqueous phase at room temperature. Specifically, 0.3% of the hydrochloride salt was dissolved in a water-phase solution composed of water, PEG400, glycerol, propylene glycol, hexanediol, and polysorbate 60 (as per Table 3). It was heated at 80 °C with stirring for 10 minutes for complete dissolution, then cooled to room temperature. 1% (w/w) of urea or polyvinylpyrrolidone (PVP K-30) was tested as a solubilizer by being added to the solution.
Additionally, 2% (w/w) of xanthan gum, carboxymethyl cellulose, or PEG-240/HDI copolymer bis-decyltetradeceth-20 ether was tested as a thickener. Various combinations were also tested. The day on which precipitation first appeared was noted by visual or microscopic observation. The maximum days with no precipitation was recorded. […] Confirmatory mass spectrometry and ^1H-NMR indicated the precipitate was the compound of Chemical Formula 1.

[2] = Comparison of L-menthol with other known transdermal permeation enhancers (AUC∞ of the thienopyridine compound); assay type: in vivo; conditions: AUC∞ after transdermal administration, component replaced with water, mice, FIG. 3
Experimental: Other reported transdermal permeation enhancers were tested to see how they affect the skin permeability of the thienopyridine compound.
Variants of the Example 1 formulation were created by removing one of the following and replacing it with water: propylene glycol, glycerol, or urea. Each variant was administered transdermally to mice (n=3) as in Experimental Example 2. Blood samples were analyzed to obtain plasma concentration-time profiles and the resulting average AUC∞±SD. These were compared by bar chart (FIG. 3) with the Example 1 formulation (with L-menthol) and Comparative Example 1 (without L-menthol). The asterisk (*) indicates p<0.01 (t-test).

[3] = ultraviolet light; Korean Patent No. 10-1478302; cited from earlier work
[4] = Ju Yong Song 2016 thesis; cited from earlier work
[5] = tested on: Src/DDR tyrosine kinase family; conditions: see U.S. Pat. No. 9,062,066; cited from earlier work
[6] = Fowler A J et al. 2019; US 2019-0262323; cited from earlier work
[7] = Ju Yong Song 2016 thesis; cited from earlier work; remark: listed apart in the source
[8] = Sun X et al. 2012; cited from earlier work
[9] = Transdermal potential: plasma pharmacokinetics via topical, intravenous and intradermal routes in rats; assay type: in vivo, SD rats; conditions: 5 mpk; for AUC(0-inf) / AUC(0-t) at 24 h / Cmax / Tmax / half-life: rat, 5 mg/kg, male SD rats, phosphate salt form, plasma
Experimental: An experiment was conducted to evaluate the transdermal potential of the thienopyridine compound (API) using 7-week-old male SD rats. Specifically, the same 5 mpk dose of the thienopyridine compound was administered via three routes-transdermal (topical), intravenous (tail vein), and intradermal injections-simultaneously, following the compositions and methods shown in Table 1 (n=3 per group). The plasma concentration of the thienopyridine compound and pharmacokinetic parameters were then measured for each route.
In more detail, in each formulation the thienopyridine compound was used in phosphate salt form (compound:phosphoric acid=1:2.5 equivalents) at a concentration of 0.3 wt % in the carrier solution. For the transdermal formulation, the thienopyridine compound was first dissolved in a carrier solution lacking 3% […]™ EG, and then 3% […]™ EG (Seppic, France) was added with stirring for 3 minutes to impart viscosity. Blood samples were collected via the carotid artery at 0 (negative control sample), 0.03, 0.16, 0.25, 0.5, 1, 2, 4, 6, and 24 hours post-administration, placed into heparinized tubes, and centrifuged (3,000 rpm, 10 minutes). Plasma (13.5 μl) was stored at −20 °C until analyzed by LC-MS/MS within a week. Plasma concentrations of the thienopyridine compound were determined by LC-MS/MS. Each 13.5 μl plasma sample was mixed with 60 μl of acetonitrile containing 1 μg/mL of an internal standard, vortexed, and centrifuged at 6,000 rpm for 15 minutes; 50 μl of the supernatant was then mixed with 50 μl of distilled water for LC-MS/MS analysis. The LC-MS/MS system was an Agilent 1200 Series HPLC (Agilent, Santa Clara, CA) coupled with an AP13200® triple-quadrupole mass spectrometer (Applied Biosystems-SCIEX, Concord, Canada). The mobile phase was 0.1% formic acid in water (A) and acetonitrile (B). Chromatographic separation was achieved on a reverse-phase Atlantis™ T3 column (100×2.1 mm, 3 μm; Waters, Milford, MA) at a flow rate of 0.25 ml/min under a gradient. The LOQ was 9.7 ng/ml, and the correlation coefficient (R) for calibration was 0.997.
Pharmacokinetic parameters were determined by noncompartmental analysis using WinNonlin® (Pharsight, Mountain View, CA). The maximum plasma concentration (Cmax) was taken directly from the plasma concentration-time profile, and time to reach Cmax (Tmax) was recorded. The area under the concentration-time curve from time zero to the last time point (AUC0-24) was calculated by the trapezoidal rule […]. AUC∞ was calculated by summing AUC0-24 and AUC24-∞, the latter obtained by dividing the 24-hour plasma concentration by the terminal elimination rate.

[10] = topical or ocular, topical application

Oc1cccc(Nc2ccnc3cc(-c4cccc(CN5CCOCC5)c4)sc23)c1
maximum days with no precipitation ([1]; thickener 2% PEG-240/HDI copolymer bis-decyltetradeceth-20 ether, solubilizer 1% polyvinylpyrrolidone (k30)): >7 days
maximum days with no precipitation ([1]; thickener 2% PEG-240/HDI copolymer bis-decyltetradeceth-20 ether, solubilizer 1% urea): 6 days
maximum days with no precipitation ([1]; thickener 2% PEG-240/HDI copolymer bis-decyltetradeceth-20 ether, solubilizer none): 6 days
maximum days with no precipitation ([1]; thickener 2% carboxymethyl cellulose, solubilizer 1% polyvinylpyrrolidone (k30)): 1 days
maximum days with no precipitation ([1]; thickener 2% carboxymethyl cellulose, solubilizer 1% urea): 1 days
maximum days with no precipitation ([1]; thickener 2% carboxymethyl cellulose, solubilizer none): 1 days
maximum days with no precipitation ([1]; thickener 2% xanthan gum, solubilizer 1% polyvinylpyrrolidone (k30)): 1 days
maximum days with no precipitation ([1]; thickener 2% xanthan gum, solubilizer 1% urea): 1 days
maximum days with no precipitation ([1]; thickener 2% xanthan gum, solubilizer none): 1 days
maximum days with no precipitation ([1]; thickener none, solubilizer 1% polyvinylpyrrolidone (k30)): 5 days
maximum days with no precipitation ([1]; thickener none, solubilizer 1% urea): 1 days
maximum days with no precipitation ([1]; thickener none, solubilizer none): 1 days

OCC(O)CO [glycerol]
effect on transdermal permeability of the thienopyridine compound [2]: virtually no effect

CC1CCC(C(C)C)C(O)C1 (stereo not drawn) [menthol]
effect on transdermal permeability of the thienopyridine compound [2]: uniquely strong enhancing effect

CC(O)CO (stereo not drawn) [propylene glycol]
effect on transdermal permeability of the thienopyridine compound [2]: virtually no effect

Oc1cccc(Nc2ccnc3cc(-c4cccc(CN5CCOCC5)c4)sc23)c1 [thienopyridine compound, 3-[[2-[3-(4-morpholinylmethyl)phenyl]thieno[3,2-b]pyridin-7-yl]amino]phenol]
anti-aging activity, wrinkle formation [3]: suppresses wrinkle formation
suppression of histamine-induced pruritus [4]: suppresses histamine-induced pruritus
inhibition of kinase activity [5]: strongly inhibits
progression of degenerative brain diseases [6]: suppress the progression of degenerative brain diseases
suppression of SLIGRL-NH2-induced pruritus [7]: effectively suppresses
anti-inflammatory and anti-scarring activities, repair of damaged skin tissue [8]: exhibits anti-inflammatory and anti-scarring activities and promotes the repair of damaged skin tissue
AUC(0-inf) ([9]; intradermal injection): 446 ± 160 ng·h/mL
AUC(0-t) at 24 h ([9]; intradermal injection): 315 ± 197 ng·h/mL
Cmax ([9]; intradermal injection): 40.3 ± 15.7 ng/mL
Tmax ([9]; intradermal injection): 0.65 ± 0.335 h
half-life ([9]; intradermal injection): 8.32 ± 3.15 h
AUC(0-inf) ([9]; intravenous (iv)): 619 ± 219 ng·h/mL
AUC(0-t) at 24 h ([9]; intravenous (iv)): 514 ± 222 ng·h/mL
half-life ([9]; intravenous (iv)): 2.74 ± 1.81 h
AUC(0-inf) [9, 10]: 49.4 ± 37.7 ng·h/mL
AUC(0-t) at 24 h [9, 10]: 41.7 ± 8.84 ng·h/mL
Cmax [9, 10]: 10.4 ± 13.5 ng/mL
Tmax [9, 10]: 1.38 ± 1.75 h
half-life [9, 10]: 5.46 ± 2.29 h
transdermal absorption relative to intravenous or intradermal administration ([9]; topical vs intravenous or intradermal, rats): about one-tenth

NC(N)=O [urea]
effect on transdermal permeability of the thienopyridine compound [2]: virtually no effect
